Data on 16 compounds can be found in patent publication US9951088B2, “D2 receptor modulators and methods of use thereof in the treatment of diseases and disorders” (SUNOVION PHARMACEUTICALS INC., priority 2012, dated 2018).

The target of assay [1] is T1, long isoform of human D2 receptor (Homo sapiens, UniProt P14416). The experiment in a line: Arrestin Antagonist Assay (DRD2L PathHunter CHO-K1 cells, vs EC80 dopamine). The following applies: for Emax: CHO-K1, read-out: β-arrestin (antagonist mode) Imax.
In assay [2] the target is T1, long isoform of human D2 receptor. The assay can be described thus: cAMP HTRF Agonist Assay (DRD2L PathHunter CHO-K1 cells, forskolin-stimulated). The conditions noted are these: for Emax: CHO-K1, read-out: cAMP (agonist mode) Emax.
Experimental: Cell Lines: Activities of the compounds were assessed using a Chinese Hamster Ovary (CHO—K1) cell line that recombinantly expressed the long isoform of human D2 receptor (DRD2L PathHunter cells). The D2 receptor DNA sequence was modified to contain a “ProLink” at its C-terminus which allowed complementation with an “enzyme acceptor” (EA)-tagged β-arrestin protein. The recruitment of the O-arrestin by the D2 receptor led to complementation of the ProLink and EA and formation of active β-galactosidase which generated a D2-specific signal that was measured. The cAMP assay was measured in the same D2-expressing cell line. The D2 receptor inhibited cAMP formation so that the basal levels of cAMP were increased by the addition of an adenylate cyclase stimulator, forskolin.
cAMP HTRF Agonist Assay: Two days prior to testing, a vial of high density stock of DRD2L PathHunter cells was thawed, and cells were diluted into 10 mL of growth media (Ham's F12/10% HI FBS/1% PSG) and used to seed a T225 flask containing 50 mL of growth media. Cells were cultured for 2 days.
On the day of the assay, cells were dissociated in 5 mL cell dissociation buffer (enzyme free—Invitrogen) for 10-15 minutes at 37° C. Dissociated cells were diluted with 10 mL of growth media and counted. Cell counts were routinely ˜2×10^7 per T225. Cells were then pelleted at 1500 rpm for 5 min. Supernatant was aspirated, and cells were re-suspended in HBSS/20 mM Hepes, pH 7.4 to a cell density of 1×10^6/mL.
cAMP levels were determined using the Cisbio HTRF method. HRTF reagents (cAMP-HTRF acceptor fluorophore (d2) conjugate and cryptate-labeled anti-cAMP antibody) were prepared according to maunfacturers instructions. 5 μL of each were added to each well of an assay plate and incubated for 1 h at RT. The plate was then read on an Envision reader using the HTRF protocol, and data were exported for analysis.
The agonist Emax results were expressed as a percent of the dopamine control response ((measured specific response/control specific agonist response)×100) obtained in the presence of test article. The EC50 values (concentration producing a half-maximal specific response) were determined by non-linear regression analysis of the concentration-response curves.
Assay [3] shares this target. The experiment in a line: Arrestin Agonist Assay (DRD2L PathHunter CHO-K1 cells, β-arrestin recruitment). The following applies: for Emax: CHO-K1, read-out: β-arrestin (agonist mode) Emax.

T1 sequence (P14416 whole entry, canonical isoform): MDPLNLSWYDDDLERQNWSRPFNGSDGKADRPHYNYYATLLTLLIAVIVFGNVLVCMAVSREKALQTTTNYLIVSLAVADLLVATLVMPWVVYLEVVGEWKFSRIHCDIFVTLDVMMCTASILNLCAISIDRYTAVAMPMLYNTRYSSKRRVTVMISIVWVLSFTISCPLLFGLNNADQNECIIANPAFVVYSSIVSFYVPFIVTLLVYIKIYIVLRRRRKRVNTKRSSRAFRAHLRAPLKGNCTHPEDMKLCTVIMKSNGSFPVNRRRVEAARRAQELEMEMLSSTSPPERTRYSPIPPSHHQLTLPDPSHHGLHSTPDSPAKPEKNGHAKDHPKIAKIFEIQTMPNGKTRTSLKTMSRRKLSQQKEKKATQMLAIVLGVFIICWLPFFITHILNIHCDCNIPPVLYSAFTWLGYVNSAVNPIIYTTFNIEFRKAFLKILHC

Consider `N#Cc1cccc2c1CN(CCCCOc1ccc3c(n1)NC(=O)CC3)CC2` [Compound 80, 2-(4-((7-oxo-5,6,7,8-tetrahydro-1,8-naphthyridin-2-yl)oxy)butyl)-1,2,3,4-tetrahydroisoquinoline-8-carbonitrile], for which the IC50 in assay [1] is 0.1 to 1 µM; in assay [2], greater than 10 µM. The Emax in assay [1] is greater than 75%; in assay [2], less than 10%; in assay [3] it was less than 10%. In assay [3], the EC50 is greater than 10 µM.
Take `O=C1CCc2ccc(OCCCCN3CCc4nn(-c5ccccc5)cc4C3)cc2N1` [Compound 30, 7-(4-(2-phenyl-6,7-dihydro-2H-pyrazolo[4,3-c]pyridin-5(4H)-yl)butoxy)-3,4-dihydroquinolin-2(1H)-one]: in assay [1], the IC50 lay in the range of 0.01 to 0.1 µM and the Emax was greater than 75%. In assay [2], the IC50 lay within 0.01 to 0.1 µM and the Emax lay in the range of 25 to 50%. In assay [3], the EC50 was less than 0.01 µM and the Emax is 10 to 25%.
`Cc1ccc2c(c1)CN(CCCCOc1ccc3c(n1)NC(=O)CC3)CC2` [Compound 81, 7-(4-(7-methyl-3,4-dihydroisoquinolin-2(1H)-yl)butoxy)-3,4-dihydro-1,8-naphthyridin-2(1H)-one]: in assay [1], the IC50 lay in the range of 0.01 to 0.1 µM and the Emax is greater than 75%. For the same compound, in assay [2], the IC50 was greater than 10 µM and the Emax was less than 10%. Moreover, in assay [3], the EC50 is greater than 10 µM and the Emax was less than 10%.
Turning to `O=C1CCc2ccc(OCCCCN3CCc4cc(F)ccc4C3)nc2N1` [Compound 72, 7-(4-(6-fluoro-3,4-dihydroisoquinolin-2(1H)-yl)butoxy)-3,4-dihydro-1,8-naphthyridin-2(1H)-one], in assay [1], the IC50 fell in the range of 0.01 to 0.1 µM and the Emax was greater than 75%. For the same compound, in assay [2], the IC50 is greater than 10 µM and the Emax is less than 10%. For the same compound, in assay [3], the EC50 was greater than 10 µM and the Emax is less than 10%.
Take `Cc1ccc2c(c1)CN(CCCCOc1ccc3ccc(=O)[nH]c3n1)CC2` [Compound 65, 7-(4-(7-methyl-3,4-dihydroisoquinolin-2(1H)-yl)butoxy)-1,8-naphthyridin-2(1H)-one]: the IC50 in assay [1] was 0.01 to 0.1 µM; in assay [2], less than 0.01 µM. The Emax is greater than 75% in assay [1], 10 to 25% in assay [2] and less than 10% in assay [3]. This compound also showed an EC50 in assay [3] greater than 10 µM.
Turning to `O=C1NCCc2ccc(OCCCCN3CCc4c(Cl)cccc4C3)nc2N1` [Compound 88, 8-(4-(5-chloro-3,4-dihydroisoquinolin-2(1H)-yl)butoxy)-4,5-dihydro-1H-pyrido[2,3-d][1,3]diazepin-2(3H)-one], the values for the IC50 in assay [1] and in assay [2] were 0.1 to 1 µM and less than 0.01 µM, respectively. Also, the Emax in assay [1] is 25 to 50%; in assay [2] it was 50 to 75%; in assay [3] it was 25 to 50%. Further, in assay [3], the EC50 fell in the range of 0.01 to 0.1 µM.
As for `Oc1cccc2ccc(OCCCCN3CCc4ccsc4C3)nc12` [Compound 19, 2-(4-(4,5-dihydrothieno[2,3-c]pyridin-6(7H)-yl)butoxy)quinolin-8-ol], in assay [1], the IC50 was 1 to 10 µM and the Emax was greater than 75%. In assay [2], the IC50 was greater than 10 µM and the Emax is less than 10%. For the same compound, in assay [3], the concentration for a half-maximal effect (EC50) was greater than 10 µM and the Emax is less than 10%.
For the compound `O=C1CCc2ccc(OCCCCN3CCc4ccccc4C3)nc2N1` [Compound 68, 7-(4-(3,4-dihydroisoquinolin-2(1H)-yl)butoxy)-3,4-dihydro-1,8-naphthyridin-2(1H)-one], the IC50 was 0.01 to 0.1 µM in assay [1] and less than 0.01 µM in assay [2]. Also, the figures for the Emax in assay [1], in assay [2] and in assay [3] were greater than 75%, 25 to 50% and less than 10%, respectively. In assay [3], this compound gave an EC50 greater than 10 µM.
For `O=C1CCc2ccc(OCCCCN3CCc4c(cnn4-c4cccc(Cl)c4)C3)cc2N1` [Compound 32, 7-(4-(1-(3-chlorophenyl)-6,7-dihydro-1H-pyrazolo[4,3-c]pyridin-5(4H)-yl)butoxy)-3,4-dihydroquinolin-2(1H)-one], in assay [1], the IC50 is less than 0.01 µM and the Emax is greater than 75%. Further, in assay [2], the IC50 was greater than 10 µM and the Emax was less than 10%. Besides, in assay [3], the EC50 is greater than 10 µM and the Emax was less than 10%.
As for `O=c1ccc2ccc(OCCCCN3CCc4c(cccc4C(F)(F)F)C3)nc2[nH]1` [Compound 61, 7-(4-(5-(trifluoromethyl)-3,4-dihydroisoquinolin-2(1H)-yl)butoxy)-1,8-naphthyridin-2(1H)-one], in assay [1], the IC50 was greater than 10 µM and the Emax is less than 10%. Moreover, in assay [2], the IC50 was less than 0.01 µM and the Emax is greater than 75%. In assay [3], the EC50 was 0.01 to 0.1 µM and the Emax is greater than 75%.
In the case of `O=C1CCc2ccc(OCCCCN3CCc4nn(-c5ccccn5)cc4C3)cc2N1` [Compound 38, 7-(4-(2-(pyridin-2-yl)-6,7-dihydro-2H-pyrazolo[4,3-c]pyridin-5(4H)-yl)butoxy)-3,4-dihydroquinolin-2(1H)-one], in assay [1], the IC50 was in the range of 0.01 to 0.1 µM and the Emax was 25 to 50%. In assay [2], the IC50 was less than 0.01 µM and the Emax is 50 to 75%. In assay [3], the EC50 is less than 0.01 µM and the Emax fell in the range of 25 to 50%.
In the case of `O=C1CCc2ccc(OCCCCN3CCc4cc(C(F)(F)F)ccc4C3)nc2N1` [Compound 74, 7-(4-(6-(trifluoromethyl)-3,4-dihydroisoquinolin-2(1H)-yl)butoxy)-3,4-dihydro-1,8-naphthyridin-2(1H)-one], in assay [1], the IC50 was 0.1 to 1 µM and the Emax was greater than 75%. In assay [2], the IC50 was 0.01 to 0.1 µM and the Emax fell in the range of 10 to 25%. Besides, in assay [3], the EC50 was greater than 10 µM and the Emax was less than 10%.
Regarding `CCC(=O)Nc1cccc(OCCCCN2CCc3ccccc3C2)n1` [Compound 41, N-(6-(4-(3,4-dihydroisoquinolin-2(1H)-yl)butoxy)pyridin-2-yl)-propionamide], the IC50 in assay [1] was 0.1 to 1 µM; in assay [2] it was greater than 10 µM. Moreover, the Emax in assay [1] was greater than 75%; in assay [2], less than 10%; in assay [3] it was less than 10%. For the same compound, in assay [3], the EC50 is greater than 10 µM.
Regarding `CCOc1ccccc1N1CCN(CCCCOc2cccc(-c3cc[nH]n3)n2)CC1` [Compound 49, 1-(4-((6-(1H-pyrazol-3-yl)pyridin-2-yl)oxy)butyl)-4-(2-ethoxyphenyl)piperazine], in assay [1], the IC50 was less than 0.01 µM and the Emax lay in the range of 50 to 75%. Besides, in assay [2], the concentration for half-maximal inhibition (IC50) is less than 0.01 µM and the Emax was in the range of 50 to 75%. Also, in assay [3], the EC50 was less than 0.01 µM and the Emax lay within 10 to 25%.
For the compound `N#Cc1cccnc1N1CCN(CCCCOc2cccc(-c3cc[nH]n3)n2)CC1` [Compound 48, 2-(4-(4-((6-(1H-pyrazol-3-yl)pyridin-2-yl)oxy)butyl)piperazin-1-yl)nicotinonitrile], the results for the IC50 in assay [1] and in assay [2] were 0.01 to 0.1 µM and less than 0.01 µM, respectively. For the same compound, the Emax in assay [1] is 25 to 50%; in assay [2], greater than 75%; in assay [3], 25 to 50%. Further, in assay [3], the EC50 is less than 0.01 µM.
Regarding `O=c1ccc2ccc(OCCCCN3CCc4c(Cl)cccc4C3)nc2[nH]1` [Compound 60, 7-(4-(5-chloro-3,4-dihydroisoquinolin-2(1H)-yl)butoxy)-1,8-naphthyridin-2(1H)-one], in assay [1], the IC50 was greater than 10 µM and the Emax is less than 10%. In assay [2], the IC50 was less than 0.01 µM and the Emax was greater than 75%. Besides, in assay [3], the EC50 is less than 0.01 µM and the Emax was greater than 75%.
